Measured values published in patent publication US20110165279A1, “SWEET POTATO TRYPSIN INHIBITOR AND METHODS FOR TREATING INFLAMMATION AND HYPERALGESIA” (Academia Sinica Office of Public Affairs (Technology …, priority 2010, published 2011).

What was measured:
[1] = system: hind paw edema induced by λ-carrageenan in mice; experiment: λ-carrageenan-induced hind paw edema test in mice; assay type: in vivo, mouse; settings: 10 mg/kg i.p., 3, 4 and 5 hours after Carr injection; p<0.01 or p<0.001
Procedure: Male ICR mice (18-25 g) were obtained from the BioLASCO Taiwan Co., Ltd. The animals were kept in plexiglass cages under a constant temperature of 22±1° C., relative humidity 55±5%, and a light regime of 12 hours dark/12 hour light for at least 2 weeks before the experiment. They were given food and water ad libitum. All experimental procedures were performed according to the NIH Guide for the Care and Use of Laboratory Animals. The placebo groups were given subcutaneous 0.1 ml/10 g saline using a bent blunted 27-gauge needle connected to a 1 ml syringe. All tests were conducted under the guidelines of the International Association for the Study of Pain [Zimmermann, M., Ethical guidelines for investigations of experimental pain in conscious animals. Pain. 1983, 16, 109-110].
Male ICR mice (eight per group), 18 g to 25 g, were fasted for 24 hours before the experiment with free access to water. […] Paw volume was measured immediately after Carr injection and at 1, 2, 3, 4 and 5 hours intervals after the administration of the edematogenic agent using a plethysmometer (model 7159, Ugo Basile, Varese, Italy). The degree of swelling induced was evaluated by the ratio a/b, where a is the volume of the right hind paw after Carr treatment, and b is the volume of the right hind paw before Carr treatment.

mouse hind footpad = experiment: Histological examination of mouse hind footpad after carrageenan (H&E, neutrophil counts); assay type: in vivo; settings: biopsies 5 hours after Carr, IbTI 40 mg/kg, indomethacin 10 mg/kg
Procedure: For histological examination, biopsies of paws were taken 5 hours after Carr injection into the plantar side of right hind paws. The tissue slices were fixed in solution with 1.85% formaldehyde and 1% acetic acid for 1 week at room temperature, then dehydrated by graded ethanol and embedded in Paraffin (Sherwood Medical, St. Louis, Mo., USA). Sections (thickness 5 μm) were deparaffinized with xylene and stained with hematoxylin and eosin. All samples were observed and photographed with BH2 Olympus microscopy (Japan). Every 3-5 tissue slices were randomly chosen from control, Carr, Indo and IbTI-treated (40 mg/kg) groups. The numbers of neutrophils were counted in each scope (400×) and average counts from 5 scopes of each tissue slice were calculated.

## COc1ccc2c(c1)c(CC(=O)O)c(C)n2C(=O)c1ccc(Cl)cc1 [Indomethacin, indomethacin]
[1]
  paw edema: significantly decreased paw edema
Mouse hind footpad
  histological appearance of hind footpad vs Carr only: significantly reduced the level of hemorrhage, edema and inflammatory cell infiltration
Mouse hind footpad; p<0.01
  neutrophil numbers in paw tissue vs Carr-treated group: significantly decreased the number of inflammatory neutrophil infiltration
